Common to all, as to assay: biochemical
Set-up in all cases: Fluorogenic phosphatase assay, DiFMUP hydrolysis by recombinant PTPs, initial velocity, Ex/Em 355/460 nm
Holding throughout (conditions): read-out: Inhibition by 20 µM polyphyllin D (%)

The target of assay [1] is T1, PTPN23 (HD-PTP) (Homo sapiens, UniProt Q9H3S7).
T1 construct: 1179-1463
Here is the method:
(§1) Enzymatic reactions were initiated by the addition of SHP2 (final concentration of 10 nM) to a solution of each of the 658 phytochemical compounds (final concentration of 20 µM) in reaction buffer (20 mM bis-tris pH 6.0, 150 mM NaCl, 2.5 mM dithiothreitol, and 0.01% Triton X-100) containing DiFMUP (final concentration of 140 µM). Changes in the fluorescence intensities were measured continuously for 10 min at Ex/Em = 355/460 nm on a VictorTM X4 multilabel plate reader. Enzyme inhibition was estimated by comparing the reaction velocity in the presence of each compound with that in the absence of any compound. Inhibition of the other PTPs was measured in the same way. Next, we established a screening strategy using a DiFMUP substrate to identify a natural product that inhibits SHP2 activity. Initially, we screened 658 compounds at 20 µM using a 96-well plate system (Figure 2A). […] The selected compounds were tested at 20 µM for SHP2 inhibition, and 14 additional non-receptor-type PTPs (PTP1B, TCPTP, PTPH1, STEP, SHP1, HePTP, PTP-MEG2, PTP-PEST, PTP-BAS, PTP36, PTP-HSCF, PTPD1, LYP, and HD-PTP) were used to investigate the inhibition selectivity. The results were visualized using a heat map analysis by GraphPad Prism (Figure 2B and Table S2 in Supplementary Materials). To identify new SHP2 anticancer natural products, we first performed cloning to express SHP2 protein and then purified it. PTPN11 (Gene ID: 5781) encoding human SHP2 (amino acids sequences 1 to 526) with several extra amino acids were cloned into the MBP-pET 28a (+) vector, which was successfully used to overexpress PTPs with enhanced solubility in an Escherichia coli expression system. Information on amino acids for 15 non-receptor-type PTPs including SHP2 is summarized in Table S3 in the Supplementary Materials. SHP2 was overexpressed in RosettaTM (DE3) and purified using a metal affinity resin (Figure S1 in Supplementary Materials). […] The kcat, KM, and kcat/KM values were determined to be 270 min^−1, 70 μM, and 3.9 μM^−1min^−1, respectively, using the Lineweaver–Burk plot analysis (Table S1 in Supplementary Materials).

Assay [2] has as its target T2, PTPN7 (HePTP) (Homo sapiens, UniProt P35236).
T2 construct: 1-360
T2 sequence (P35236 1-360): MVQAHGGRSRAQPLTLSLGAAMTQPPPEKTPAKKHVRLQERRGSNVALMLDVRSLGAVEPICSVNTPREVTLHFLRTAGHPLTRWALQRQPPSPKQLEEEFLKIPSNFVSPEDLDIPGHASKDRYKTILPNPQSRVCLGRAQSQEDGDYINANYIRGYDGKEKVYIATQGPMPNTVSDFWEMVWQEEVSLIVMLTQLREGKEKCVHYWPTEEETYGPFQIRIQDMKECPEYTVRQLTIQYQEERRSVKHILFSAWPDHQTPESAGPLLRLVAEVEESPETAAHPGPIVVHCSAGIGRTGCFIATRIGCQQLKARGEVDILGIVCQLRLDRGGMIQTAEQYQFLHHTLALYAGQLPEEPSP
On the procedure:
as §1

Assay [3] addresses T3, PTPN12 (PTP-PEST) (Homo sapiens, UniProt Q05209).
T3 construct: 1-334
T3 sequence (Q05209 1-780): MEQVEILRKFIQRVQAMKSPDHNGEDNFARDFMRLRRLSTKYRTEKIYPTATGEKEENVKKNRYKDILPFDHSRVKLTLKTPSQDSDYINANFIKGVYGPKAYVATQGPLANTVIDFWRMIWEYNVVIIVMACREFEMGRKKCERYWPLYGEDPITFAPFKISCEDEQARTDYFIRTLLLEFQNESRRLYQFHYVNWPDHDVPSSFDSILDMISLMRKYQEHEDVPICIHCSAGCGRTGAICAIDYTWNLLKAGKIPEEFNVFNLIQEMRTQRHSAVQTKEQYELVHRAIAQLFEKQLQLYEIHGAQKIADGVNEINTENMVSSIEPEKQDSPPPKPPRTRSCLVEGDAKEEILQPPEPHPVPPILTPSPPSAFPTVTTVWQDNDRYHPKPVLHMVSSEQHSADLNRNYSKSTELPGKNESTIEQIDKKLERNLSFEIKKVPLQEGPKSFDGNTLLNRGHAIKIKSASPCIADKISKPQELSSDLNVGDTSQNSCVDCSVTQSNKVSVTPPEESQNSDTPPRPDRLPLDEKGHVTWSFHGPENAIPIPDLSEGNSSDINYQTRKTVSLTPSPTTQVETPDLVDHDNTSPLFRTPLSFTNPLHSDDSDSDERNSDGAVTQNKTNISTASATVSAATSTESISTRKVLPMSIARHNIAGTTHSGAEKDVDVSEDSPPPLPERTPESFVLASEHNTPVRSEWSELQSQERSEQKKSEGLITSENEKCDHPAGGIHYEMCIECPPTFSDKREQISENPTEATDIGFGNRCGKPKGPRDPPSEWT
On the procedure:
as §1

For assay [4], the target named is T4, SHP2 (Homo sapiens, UniProt Q06124).
T4 construct: gene PTPN11
T4 sequence (Q06124 1-526): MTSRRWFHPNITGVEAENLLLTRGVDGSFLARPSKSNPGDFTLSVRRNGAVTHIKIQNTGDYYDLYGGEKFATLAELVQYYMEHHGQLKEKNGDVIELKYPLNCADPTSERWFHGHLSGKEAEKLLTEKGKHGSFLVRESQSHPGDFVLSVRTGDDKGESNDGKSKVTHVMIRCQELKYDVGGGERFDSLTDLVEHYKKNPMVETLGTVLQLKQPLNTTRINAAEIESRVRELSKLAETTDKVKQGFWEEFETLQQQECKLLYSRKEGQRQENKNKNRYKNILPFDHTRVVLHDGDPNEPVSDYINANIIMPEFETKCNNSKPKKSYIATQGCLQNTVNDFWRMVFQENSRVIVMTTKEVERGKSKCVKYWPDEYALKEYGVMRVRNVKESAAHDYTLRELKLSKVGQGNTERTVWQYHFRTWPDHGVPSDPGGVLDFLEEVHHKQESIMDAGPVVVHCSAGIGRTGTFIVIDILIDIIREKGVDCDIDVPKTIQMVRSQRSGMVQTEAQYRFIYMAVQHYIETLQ
On the procedure:
as §1

Results on 1 molecule are retold here after article PMC7915588, “Polyphyllin D Shows Anticancer Effect through a Selective Inhibition of Src Homology Region 2-Containing Protein Tyrosine Phosphatase-2 (SHP2)” (Molecules, 2021).

For orientation: inhibition means the drop in the measured response relative to a control, in per cent.

Molecules are shown by their SMILES.

T1 sequence (Q9H3S7 whole entry): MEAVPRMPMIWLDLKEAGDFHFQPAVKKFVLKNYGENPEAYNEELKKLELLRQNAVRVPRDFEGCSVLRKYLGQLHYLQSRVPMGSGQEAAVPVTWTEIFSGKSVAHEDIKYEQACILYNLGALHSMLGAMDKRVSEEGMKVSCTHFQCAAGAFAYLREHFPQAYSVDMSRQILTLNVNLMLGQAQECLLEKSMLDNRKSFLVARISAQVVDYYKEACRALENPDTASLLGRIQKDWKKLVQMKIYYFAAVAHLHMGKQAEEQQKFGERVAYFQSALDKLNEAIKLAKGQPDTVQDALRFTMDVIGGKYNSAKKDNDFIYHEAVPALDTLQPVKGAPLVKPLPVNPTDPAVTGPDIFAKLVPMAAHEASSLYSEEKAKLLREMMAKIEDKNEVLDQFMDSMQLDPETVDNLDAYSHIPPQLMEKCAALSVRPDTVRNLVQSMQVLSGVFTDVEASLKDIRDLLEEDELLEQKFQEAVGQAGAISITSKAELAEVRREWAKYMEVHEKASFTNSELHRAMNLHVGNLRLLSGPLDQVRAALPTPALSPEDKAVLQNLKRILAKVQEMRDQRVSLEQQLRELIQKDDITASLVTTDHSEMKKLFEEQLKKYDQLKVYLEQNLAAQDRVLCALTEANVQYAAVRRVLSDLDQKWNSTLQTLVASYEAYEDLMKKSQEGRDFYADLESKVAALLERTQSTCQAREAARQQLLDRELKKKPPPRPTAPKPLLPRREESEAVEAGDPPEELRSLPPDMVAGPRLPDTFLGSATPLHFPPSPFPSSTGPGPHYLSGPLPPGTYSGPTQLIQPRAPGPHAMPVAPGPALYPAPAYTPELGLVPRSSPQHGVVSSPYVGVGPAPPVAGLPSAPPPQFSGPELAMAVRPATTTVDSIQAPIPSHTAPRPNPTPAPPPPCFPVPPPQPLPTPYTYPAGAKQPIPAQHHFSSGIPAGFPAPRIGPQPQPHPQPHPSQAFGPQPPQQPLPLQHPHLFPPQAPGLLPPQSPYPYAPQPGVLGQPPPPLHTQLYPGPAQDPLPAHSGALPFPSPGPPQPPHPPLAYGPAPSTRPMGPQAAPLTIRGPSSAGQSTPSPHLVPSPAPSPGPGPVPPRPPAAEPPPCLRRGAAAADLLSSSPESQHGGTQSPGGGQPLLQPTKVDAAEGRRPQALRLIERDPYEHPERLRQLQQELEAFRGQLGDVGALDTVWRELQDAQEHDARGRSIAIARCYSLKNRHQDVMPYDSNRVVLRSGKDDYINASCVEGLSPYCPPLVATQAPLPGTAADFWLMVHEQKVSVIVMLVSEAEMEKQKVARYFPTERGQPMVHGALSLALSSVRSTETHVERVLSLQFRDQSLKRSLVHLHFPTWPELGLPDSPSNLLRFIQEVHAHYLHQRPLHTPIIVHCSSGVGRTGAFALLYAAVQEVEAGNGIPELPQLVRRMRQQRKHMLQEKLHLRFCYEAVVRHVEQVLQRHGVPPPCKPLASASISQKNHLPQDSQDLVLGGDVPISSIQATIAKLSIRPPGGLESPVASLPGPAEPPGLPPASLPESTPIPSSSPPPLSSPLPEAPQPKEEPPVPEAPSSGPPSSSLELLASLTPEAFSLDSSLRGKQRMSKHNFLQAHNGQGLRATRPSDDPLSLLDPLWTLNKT

`C[C@@H]1CC[C@@]2(OC1)O[C@H]1C[C@H]3[C@@H]4CC=C5C[C@@H](O[C@@H]6O[C@H](CO)[C@@H](O[C@@H]7O[C@@H](CO)[C@H](O)[C@H]7O)[C@H](O)[C@H]6O[C@@H]6O[C@@H](C)[C@H](O)[C@@H](O)[C@H]6O)CC[C@]5(C)[C@H]4CC[C@]3(C)[C@H]1[C@@H]2C` [polyphyllin D]: the inhibition at 20 µM stood at 0% in assay [1], 9.2% in assay [2], 29.9% in assay [3] and 85.6% in assay [4].
